Each compound was assayed against T1, cloned human dopamine D3 receptors (Homo sapiens, UniProt P35462) (assay: [N-Methyl-3H]Spiroperidol binding to cloned human dopamine D3 receptors (Protocol 1)). Conditions: Table 2; read-out: D3K1.
T1 construct: expressed in transfected cells; membrane homogenate
Text: [N-Methyl-^3H]Spiroperidol Binding to Cloned Human Dopamine D3 Receptors
This assay measures the in vitro activity of compounds on cloned human dopamine (D3) receptors and predicts the direct dopamine-blocking properties of putative neuropsychiatric agents at human dopamine D3 receptors.
The D3 gene was isolated from a human striatal cDNA library (Stratagene). The gene was sequenced and sub-cloned into the expression vector RC/RSV (Invitrogen). CHO (Chinese Hamster Ovary) cells were stably transfected with 10 μg of the D3/RSV plasmid using the DOTAP method from Boehringer Mannheim and 72 clones that were G418 resistant were isolated. Using mRNA and binding displacement data a single high expressing clone was identified. This clone was then grown in large batches for the purpose of developing a 96 well format assay.
• 1. One plate (10 cm) with approximately 2-3 million D3 cells per plate is incubated with 1 ml of Trypsin-EDTA at room temperature for ˜2 min or until cells have lifted off plates. Four ml of Ham's F12+10% Fetal Bovine Serum+1% Penicillin/Streptomycin+G418 (400 μg/ml) medium are added to resuspend cells and 1 ml of this is added to each large plate (15 cm) containing 19 ml of the-same medium as mentioned above. • 2. The 5 large plates are incubated at 37° C.+5% CO2 for ˜3 days or until the cells are confluent. • 3. After these plates are confluent, they are split into 10 large plates. Medium is aspirated off, 2 ml of Trypsin-EDTA are added to each plate and plates are incubated at RT for 2 min or until cells have lifted off the plate. Eight ml of the F12 medium (same medium as #1 above) are added to each plate (10 ml total) to resuspend the cells and 5 ml are transferred to the 2 new plates containing 15 ml of the F12 media. • 4. The 10 large plates are incubated at 37° C.+5% CO2 for ˜2 days or until the cells are confluent. • 5. The 10 large plates are split into 60 large plates (using Trypsin-EDTA as #3 except 4 ml of F12 medium are added to resuspend cells and 1 ml is aliquoted to 6 new plates containing 19 ml of F12 medium each). • 6. Plates are incubated at […]+5% CO2 for ˜3 days or until cell are confluent. • 7. The 60 large plates are then split into 60 roller bottles (100-150 million cells/bottle). Medium is aspirated off, 2 ml of Trypsin-EDTA are added to each plate and incubated at RT for ˜2 minutes or until cells have lifted off plates. Eight ml of F12 medium are added to each plate to resuspend cells and the entire 10 ml are added to 1 roller bottle containing 90 ml of the F12 medium. • 8. The 60 roller bottles are immediately placed on their sides and transferred to the roller bottle incubator. They are incubated at 37° C.+5% CO2 for ˜3-5 days. Cells are spun at 30-40% motor speed in the Forma incubator. • 9. Medium is poured off and cells are washed 2× in PBS. • 10. Cells are then scraped off in 20 ml of PBS and the bottles are rinsed again with 5 ml of PBS to remove any remaining cells. Cells are stored on ice before membrane preparation. • 11. The yield for 60 D3 roller bottles has varied from ˜260-500 mg. • Note: All tissue culture reagents are from Gibco-BRL. C. Membrane Preparation
The cells are harvested into 250 ml centrifuge tubes with 100 volumes of cold phosphate buffered saline (PBS) and spun down (1200×G for 10 min at 4° C.). The medium is removed and 100 ml PBS are added to each centrifuge tube, cells are resuspend and spun down again. The PBS is removed and the final pellet is homogenized in an appropriate volume of 10% DMSO with a polytron on ice at a medium setting.
1. 0.5M Tris Buffer, pH 7.7 • a) 44.4 g Tris HCl 26.5 g Tris Base q.s. to 1 Liter (0.5 M Tris buffer, pH 7.7 at 37° C.) • b) make a 1:10 dilution in distilled H2O (0.05 M. Tris buffer, pH 7.7) 2. Tris Buffer Containing Physiological Salts • a) Stock buffer • NaCl 7.014 g • KCl 0.372 g • CaCl2 0.222 g • MgCl2 0.204 g • q.s. To 100 ml with 0.5 M. Tris Buffer • b) Dilute 1:10 in distilled H2O […]

T1 sequence (P35462 whole entry): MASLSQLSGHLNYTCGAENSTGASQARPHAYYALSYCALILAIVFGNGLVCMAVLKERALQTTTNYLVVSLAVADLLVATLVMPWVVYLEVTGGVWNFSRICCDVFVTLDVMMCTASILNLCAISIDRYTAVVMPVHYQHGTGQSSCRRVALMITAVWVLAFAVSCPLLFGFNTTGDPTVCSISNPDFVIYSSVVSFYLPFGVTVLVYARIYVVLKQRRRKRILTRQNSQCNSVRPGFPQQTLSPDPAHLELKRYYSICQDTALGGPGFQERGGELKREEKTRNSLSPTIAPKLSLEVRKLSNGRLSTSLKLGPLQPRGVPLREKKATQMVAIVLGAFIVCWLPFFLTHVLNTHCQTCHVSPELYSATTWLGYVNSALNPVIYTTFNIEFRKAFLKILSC

Ki [nM]	SMILES
249	O=C(NCC(CO)CCN1CCN(c2csc3cc(C(F)(F)F)ccc23)CC1)c1cccc(C(=O)c2ccccc2)c1 (single isomer, unassigned) [818912ES]
324	O=C(NCCC(CO)CN1CCN(c2csc3cc(C(F)(F)F)ccc23)CC1)c1ccc2ccccc2c1 (stereo not shown) [818619ES]
246	O=C(NCCC(CO)CN1CCN(c2csc3cc(C(F)(F)F)ccc23)CC1)c1ccc2[nH]ccc2c1 (stereo not shown) [818620ES]
305	Cc1c(C(=O)NCCC(CO)CN2CCN(c3csc4cc(C(F)(F)F)ccc34)CC2)cnn1-c1ccccc1 (stereo not shown) [818634ES]
331	Cc1ccc(C(=O)NCC(CO)CCN2CCN(c3csc4cc(C(F)(F)F)ccc34)CC2)cc1 (stereo not shown) [818921ES]
319	O=C(NCC(CO)CCN1CCN(c2csc3cc(C(F)(F)F)ccc23)CC1)c1c(F)cc(F)cc1F (stereo not shown) [818923ES]
318	O=C(NCC(CO)CCN1CCN(c2csc3cc(C(F)(F)F)ccc23)CC1)c1ccco1 (stereo not shown) [818924ES]
293	O=C(NCC(CO)CCN1CCN(c2csc3cc(C(F)(F)F)ccc23)CC1)c1ccoc1 (stereo not shown) [818925ES]
206	O=C(NCC(CO)CCN1CCN(c2csc3cc(C(F)(F)F)ccc23)CC1)c1cccs1 (stereo not shown) [818926ES]
164	O=C(NCC(CO)CCN1CCN(c2csc3cc(C(F)(F)F)ccc23)CC1)c1ccsc1 (stereo not shown) [818927ES]
158	O=C(NCC(CO)CCN1CCN(c2csc3cc(C(F)(F)F)ccc23)CC1)c1cn[nH]c1 (stereo not shown) [818928ES]
201	O=C(NCC(CO)CCN1CCN(c2csc3cc(C(F)(F)F)ccc23)CC1)c1ccc2ccccc2c1 (stereo not shown) [818929ES]
79.3	O=C(NCC(CO)CCN1CCN(c2csc3cc(C(F)(F)F)ccc23)CC1)c1cc2ccccc2[nH]1 (stereo not shown) [818930ES]
97.2	O=C(NCC(CO)CCN1CCN(c2csc3cc(C(F)(F)F)ccc23)CC1)c1ccc2[nH]ccc2c1 (stereo not shown) [818931ES]
207	O=C(NCC(CO)CCN1CCN(c2csc3cc(C(F)(F)F)ccc23)CC1)c1cc2ccccc2o1 (stereo not shown) [818932ES]
218	CC1=C(C(=O)NCC(CO)CCN2CCN(c3csc4cc(C(F)(F)F)ccc34)CC2)Cc2ccccc21 (stereo not shown) [818934ES]
244	O=C(NCC(CO)CCN1CCN(c2csc3cc(C(F)(F)F)ccc23)CC1)c1n[nH]c2ccccc12 (stereo not shown) [818935ES]
141	O=C(NCC(CO)CCN1CCN(c2csc3cc(C(F)(F)F)ccc23)CC1)c1ccc2ncccc2c1 (stereo not shown) [818938ES]
307	O=C(NCC(CO)CCN1CCN(c2csc3cc(C(F)(F)F)ccc23)CC1)c1ccncc1 (stereo not shown) [818940ES]

Same assay, conditions: read-out: D3K1

Ki [nM]	SMILES
6.8	CC1(C)C(CNC(=O)C2CC2c2ccccc2)C1CN1CCN(c2csc3cc(C(F)(F)F)ccc23)CC1 (mixture of isomers) [compound 826283]
4.5	O=C(NCCCCN1CCN(c2csc3cc(C(F)(F)F)ccc23)CC1)c1cccs1 [81708A]

Same assay, conditions: the 17th table; read-out: D3 Ki

Ki [nM]	SMILES
21.8	O=C(c1ccc(F)cc1)N(Cc1ccccc1)CC1CC1CN1CCCN(c2csc3cc(F)ccc23)CC1 (racemic) [compound 830393]
10.7	COc1ccc(C(=O)N(Cc2ccccc2)CC2CC2CN2CCCN(c3csc4cc(F)ccc34)CC2)cc1 (racemic) [compound 830394]
27.6	CCCCc1ccc(C(=O)N(Cc2ccccc2)CC2CC2CN2CCCN(c3csc4cc(F)ccc34)CC2)cc1 (racemic) [compound 830395]
16.5	COc1cc(OC)cc(C(=O)N(Cc2ccccc2)CC2CC2CN2CCCN(c3csc4cc(F)ccc34)CC2)c1 (racemic) [compound 830396]
55.4	O=C(c1ccc(-c2ccccc2)cc1)N(Cc1ccccc1)CC1CC1CN1CCCN(c2csc3cc(F)ccc23)CC1 (racemic) [compound 830397]
15.9	O=C(c1cc2ccccc2s1)N(Cc1ccccc1)CC1CC1CN1CCCN(c2csc3cc(F)ccc23)CC1 (racemic) [compound 830398]
59.9	Cc1ccc(C(=O)NCC2CC2CN2CCCN(c3csc4cc(F)ccc34)CC2)cc1 (racemic) [compound 830403]
51.9	O=C(NCC1CC1CN1CCCN(c2csc3cc(F)ccc23)CC1)c1ccc(C(F)(F)F)cc1 (racemic) [compound 830404]
1.65	COc1ccc(C(=O)NCC2CC2CN2CCCN(c3csc4cc(F)ccc34)CC2)cc1 (racemic) [compound 830405]
27	O=C(NCC1CC1CN1CCCN(c2csc3cc(F)ccc23)CC1)c1ccc(-c2ccccc2)cc1 (racemic) [compound 830406]
10.4	O=C(NCC1CC1CN1CCCN(c2csc3cc(F)ccc23)CC1)c1cc2ccccc2s1 (racemic) [compound 830407]

Same assay, conditions: the 18th table; read-out: D3 Ki

Ki [nM]	SMILES
11.2	O=C(NCc1sccc1CN1CCN(c2csc3cc(F)ccc23)CC1)c1ccc(-c2ccccn2)s1 [818320G]
78.7	O=C(NCc1sccc1CN1CCN(c2csc3cc(F)ccc23)CC1)c1cc2ccccc2s1 [818321G]

Same assay, conditions: the 23rd table; read-out: D3 Ki

SMILES	Ki [nM]
CC1CCCCN1CCCNC[C@@H]1C[C@H]1CN1CCN(c2csc3cc(C(F)(F)F)ccc23)CC1 (mixture of isomers) [compound 832277]	29.4
CCC1CCCC1NC[C@@H]1C[C@H]1CN1CCN(c2csc3cc(C(F)(F)F)ccc23)CC1 (mixture of isomers) [compound 832278]	19
c1cc2onc(C3CCN(CC4CC4CN4CCC(c5noc6ccsc56)CC4)CC3)c2s1 (racemic) [831205DA]	6.38
c1ccc(OCCNCC2CC2CN2CCC(c3noc4ccsc34)CC2)cc1 (racemic) [832296FH]	126
Clc1ccc(CN2CCN(CC3CC3CN3CCC(c4noc5ccsc45)CC3)CC2)cc1Cl (racemic) [832297GW]	393
OC1CCC(NCC2CC2CN2CCN(c3csc4cc(C(F)(F)F)ccc34)CC2)CC1 (racemic) [832390FH]	21.8
FC(F)(F)Oc1cccc(CNCC2CC2CN2CCN(c3csc4cc(C(F)(F)F)ccc34)CC2)c1 (racemic) [compound 832181]	16
FC(F)(F)c1ccc2c(N3CCN(CC4CC4CN4CCC(N5CCCC5)CC4)CC3)csc2c1 (racemic) [compound 832568]	46.2
Cc1nc(Cl)c(Cl)n1CCCNCC1CC1CN1CCN(c2csc3cc(C(F)(F)F)ccc23)CC1 (racemic) [compound 832644]	97.5
FC(F)(F)c1ccc2c(N3CCN(CC4CC4CNCCCN4CCCCC4)CC3)csc2c1 (racemic) [compound 832659]	28.3

Now from value to compound:

Ki [nM]	SMILES
41.5	COc1ccc(CNCC2CC2CN2CCN(c3csc4cc(C(F)(F)F)ccc34)CC2)cc1 (racemic) [compound 831909]
98	CC(C)c1ccc(CNCC2CC2CN2CCN(c3csc4cc(C(F)(F)F)ccc34)CC2)cc1 (racemic) [compound 832182]
39.6	O=C1NCCN1CCNCC1CC1CN1CCN(c2csc3cc(C(F)(F)F)ccc23)CC1 (racemic) [compound 832609]

Same assay, conditions: the 24th table; read-out: D3 Ki

Ki [nM]	SMILES
35.1	O=S(=O)(NC[C@@H]1C[C@H]1CN1CCN(c2csc3cc(C(F)(F)F)ccc23)CC1)c1ccc(F)cc1 (racemic) [compound 831495, 4-Fluoro-N-{2R-[4-(6-trifluoromethyl-benzo[b]thiophen-3-yl)-piperazin-1-ylmenthyl]-1R-cyclopropylmethyl}-benzenesulfonamide]
93.3	CC(C)(C)c1ccc(S(=O)(=O)NCC2CC2CN2CCN(c3csc4cc(C(F)(F)F)ccc34)CC2)cc1 (racemic) [compound 831591]

From US7550469B2, “Heterocyclic amide derivatives and their use as dopamine D3 receptor ligands” (Aventis Pharmaceuticals Inc., priority 2001, dated 2009)
